What is called Emax is the maximal effect, on the per cent scale that the assay sets. A word on the EC50: it is the concentration at which the effect is half-maximal.

*1 amine or outer side, *2 acyl side, *3 side chain or, on linkers, in order; H or OH if unused. Where a SMILES comes first, the peptide text is derived from it. Side-chain parts run from the residue outwards. [ ]: non-standard residue; d: D form. The star is where a group is joined. X12 = CCCCCCCCCCCCCCCC(=O)N[C@@H](CCC(=O)N[C@@H](CCC(=O)N[C@@H](CCC(=O)NCCCC[C@H](NC(=O)COCC(=O)NCCCOCCOCCOCCCNC(=O)COCC(=O)NCCCOCCOCCOCCCN*)C(N)=O)C(=O)O)C(=O)O)C(=O)O; X13 = CCCCCCCCCCCCCCCC(=O)N[C@@H](CCC(=O)N[C@@H](CCC(=O)N[C@@H](CCC(=O)NCCCC[C@H](NC(=O)COCC(=O)NCCCOCCOCCOCCCN*)C(N)=O)C(=O)O)C(=O)O)C(=O)O; PEG8 = NCCOCCOCCOCCOCCOCCOCCOCCOCCC(=O)O; γGlu = O=C(O)[C@H](CCC(=O)[*:2])N[*:1]; Pentadecanoyl = CCCCCCCCCCCCCCC(=O)*; Stearoyl = CCCCCCCCCCCCCCCCCC(=O)*; Palmitoyl = CCCCCCCCCCCCCCCC(=O)*; Myristoyl = CCCCCCCCCCCCCC(=O)*; αMeK = C[C@](N)(CCCCN)C(=O)O; Nle = CCCC[C@H](N)C(=O)O; AEEA = NCCOCCOCC(=O)O; Aib = CC(C)(N)C(=O)O

The assay has as its target T1, RXFP1 (Homo sapiens, UniProt Q9HBX9).
T1 construct: OVCAR5 cells expressing endogenous RXFP1; endogenous in cells; host or cells: OVCAR5 cells
T1 sequence (Q9HBX9 1-757): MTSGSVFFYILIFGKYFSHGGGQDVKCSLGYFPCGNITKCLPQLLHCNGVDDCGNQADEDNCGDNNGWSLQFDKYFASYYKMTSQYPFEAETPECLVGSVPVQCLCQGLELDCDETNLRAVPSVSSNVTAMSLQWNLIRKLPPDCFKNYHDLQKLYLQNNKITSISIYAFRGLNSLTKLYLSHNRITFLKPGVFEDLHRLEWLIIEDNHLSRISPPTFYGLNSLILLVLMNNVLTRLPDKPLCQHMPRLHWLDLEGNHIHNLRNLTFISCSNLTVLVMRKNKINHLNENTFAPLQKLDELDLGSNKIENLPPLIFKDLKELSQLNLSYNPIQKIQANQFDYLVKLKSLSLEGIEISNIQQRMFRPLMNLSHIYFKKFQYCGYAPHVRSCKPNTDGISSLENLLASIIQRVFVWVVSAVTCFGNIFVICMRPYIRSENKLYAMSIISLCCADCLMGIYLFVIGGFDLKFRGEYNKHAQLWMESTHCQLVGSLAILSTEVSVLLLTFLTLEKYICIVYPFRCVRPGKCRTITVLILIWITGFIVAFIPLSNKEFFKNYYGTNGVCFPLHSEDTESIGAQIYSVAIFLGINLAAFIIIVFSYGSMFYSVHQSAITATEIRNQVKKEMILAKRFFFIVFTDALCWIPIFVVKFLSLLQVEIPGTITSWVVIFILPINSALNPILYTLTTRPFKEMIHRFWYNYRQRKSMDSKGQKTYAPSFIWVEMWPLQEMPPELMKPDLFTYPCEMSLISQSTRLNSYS
The assay is described as follows: OVCAR5 cAMP assay (HTRF), RXFP1 agonist activity. In kind it is cell-based. The note with it: for Emax: OVCAR-5, maximal cAMP relative to H2-relaxin maximum (100%), read-out: EMax, OVCAR 5 cells (cAMP); for EC50: OVCAR5 cells, cAMP HTRF, read-out: EC50 (nM), OVCAR 5 cells (cAMP). A digest of the protocol:
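cAMP accumulation readout: after 1 mM IBMX for 40 min, endogenous-RXFP1 OVCAR5 cells got rising peptide concentrations without FCS, 30 min, 37° C, then lysis with HTRF cAMP reagents. Nonlinear regression gave EC50; Emax expressed relative to H2-relaxin maximum, same occasion.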
For orientation: Cyclic AMP is a second messenger, typically raised through Gs and lowered through Gi signalling.

Turning to `CCCCCCCCCCCCCCCC(=O)N[C@@H](CCC(=O)N[C@@H](CCC(=O)N[C@@H](CCC(=O)NCCCC[C@H](NC(=O)COCC(=O)NCCCOCCOCCOCCCNC(=O)[C@H](CCCCNC(C)=O)NC(=O)[C@H](CCCCN)NC(=O)[C@H](CCCNC(=N)N)NC(=O)C(C)(C)NC(=O)[C@H](CO)NC(=O)[C@H](Cc1c[nH]c2ccccc12)NC(=O)[C@@H](NC(=O)[C@H](CO)NC(=O)[C@H](CCC(N)=O)NC(=O)CNC(=O)[C@H](CCC(=O)O)NC(=O)C(C)(C)NC(=O)C(C)(C)NC(=O)[C@@H](NC(=O)[C@H](CCCCNC(C)=O)NC(=O)[C@H](C)NC(=O)[C@H](CCCNC(=N)N)NC(=O)[C@@H](NC(=O)[C@H](CCCCN)NC(=O)[C@H](CCC(=O)O)NC(=O)[C@H](CCCNC(=N)N)NC(=O)CNC(=O)[C@H](CCC(=O)O)NC(=O)[C@H](CC(C)C)NC(C)=O)C(C)C)[C@@H](C)CC)[C@@H](C)O)C(N)=O)C(=O)O)C(=O)O)C(=O)O` [compound 176] (Ac-LEGREKVRAK(Ac)I[Aib][Aib]EGQSTWS[Aib]RKK(Ac)-X13), the Emax amounted to 90%. The same measure, in the same setting: the figure for `CCCCCCCCCCCCCCCC(=O)N[C@@H](CCC(=O)N[C@@H](CCC(=O)N[C@@H](CCC(=O)NCCCC[C@H](NC(=O)COCC(=O)NCCCOCCOCCOCCCNC(=O)COCC(=O)NCCCOCCOCCOCCCNC(=O)[C@H](CCCCNC(C)=O)NC(=O)[C@H](CCCCN)NC(=O)[C@H](CCCNC(=N)N)NC(=O)C(C)(C)NC(=O)[C@H](CO)NC(=O)[C@H](Cc1c[nH]c2ccccc12)NC(=O)[C@@H](NC(=O)[C@H](CO)NC(=O)[C@H](CCC(N)=O)NC(=O)CNC(=O)[C@H](CCC(=O)O)NC(=O)C(C)(C)NC(=O)C(C)(C)NC(=O)[C@@H](NC(=O)[C@H](CCC(N)=O)NC(=O)[C@H](C)NC(=O)[C@H](CCCNC(=N)N)NC(=O)[C@@H](NC(=O)[C@H](CCCCN)NC(=O)[C@H](CCC(=O)O)NC(=O)[C@H](CCCNC(=N)N)NC(=O)CNC(=O)[C@H](CCC(=O)O)NC(=O)[C@H](CC(C)C)NC(C)=O)C(C)C)[C@@H](C)CC)[C@@H](C)O)C(N)=O)C(=O)O)C(=O)O)C(=O)O` [compound 177] (Ac-LEGREKVRAQI[Aib][Aib]EGQSTWS[Aib]RKK(Ac)-X12) is 91%. Regarding `CCCCCCCCCCCCCC(=O)N[C@@H](CCC(=O)N[C@@H](CCC(=O)N[C@@H](CCC(=O)NCCOCCOCC(=O)NCCOCCOCC(=O)NCCOCCOCC(=O)NCCCC[C@H](NC(=O)[C@H](CCCCNC(C)=O)NC(=O)[C@H](CCCCN)NC(=O)[C@H](CCCNC(=N)N)NC(=O)C(C)(C)NC(=O)[C@H](CO)NC(=O)[C@H](Cc1c[nH]c2ccccc12)NC(=O)[C@@H](NC(=O)[C@H](CO)NC(=O)[C@H](CCCC)NC(=O)CNC(=O)[C@H](CCC(=O)O)NC(=O)C(C)(C)NC(=O)C(C)(C)NC(=O)[C@@H](NC(=O)[C@H](CCCCNC(C)=O)NC(=O)[C@H](C)NC(=O)[C@H](CCCNC(=N)N)NC(=O)[C@@H](NC(=O)[C@H](CCCCN)NC(=O)[C@H](CCC(=O)O)NC(=O)[C@H](CCCNC(=N)N)NC(=O)CNC(=O)[C@H](CCC(=O)O)NC(=O)[C@H](CC(C)C)NC(C)=O)C(C)C)[C@@H](C)CC)[C@@H](C)O)C(N)=O)C(=O)O)C(=O)O)C(=O)O` [compound 178] (Ac-LEGREKVRAK(Ac)I[Aib][Aib]EG[Nle]STWS[Aib]RKK(Ac)K([AEEA-AEEA-AEEA-γGlu-γGlu-γGlu-Myristoyl])-NH2), the EC50 is 17.6 nM and the Emax turned out to be 93%. Turning to `CCCCCCCCCCCCCCCC(=O)N[C@@H](CCC(=O)N[C@@H](CCC(=O)N[C@@H](CCC(=O)NCCCC[C@H](NC(=O)COCCOCCNC(=O)COCCOCCNC(=O)COCCOCCNC(=O)[C@H](CCCCNC(C)=O)NC(=O)[C@H](CCCCN)NC(=O)[C@H](CCCNC(=N)N)NC(=O)C(C)(C)NC(=O)[C@H](CO)NC(=O)[C@H](Cc1ccc(O)cc1)NC(=O)[C@@H](NC(=O)[C@H](CO)NC(=O)[C@H](CCC(N)=O)NC(=O)CNC(=O)[C@H](CCC(=O)O)NC(=O)C(C)(C)NC(=O)C(C)(C)NC(=O)[C@@H](NC(=O)[C@H](CCCCNC(C)=O)NC(=O)[C@H](C)NC(=O)[C@H](CCCNC(=N)N)NC(=O)[C@@H](NC(=O)[C@H](CCCCN)NC(=O)[C@H](CCC(=O)O)NC(=O)[C@H](CCCNC(=N)N)NC(=O)CNC(=O)[C@H](CCC(=O)O)NC(=O)[C@H](CC(C)C)NC(C)=O)C(C)C)[C@@H](C)CC)[C@@H](C)O)C(N)=O)C(=O)O)C(=O)O)C(=O)O` [compound 179] (Ac-LEGREKVRAK(Ac)I[Aib][Aib]EGQSTYS[Aib]RKK(Ac)[AEEA][AEEA][AEEA]K([γGlu-γGlu-γGlu-Palmitoyl])-NH2), the Emax was determined as 80%. The same measure, in the same setting: the figure for `CCCCCCCCCCCCCCCCCC(=O)N[C@@H](CCC(=O)N[C@@H](CCC(=O)N[C@@H](CCC(=O)N[C@@H](CCC(=O)NCCOCCOCC(=O)NCCOCCOCC(=O)NCCOCCOCC(=O)NCCOCCOCC(=O)NCCCC[C@H](NC(=O)[C@H](CCCCNC(C)=O)NC(=O)[C@H](CCCCN)NC(=O)[C@H](CCCNC(=N)N)NC(=O)C(C)(C)NC(=O)[C@H](CO)NC(=O)[C@H](Cc1c[nH]c2ccccc12)NC(=O)[C@@H](NC(=O)[C@H](CO)NC(=O)[C@H](CCC(N)=O)NC(=O)CNC(=O)[C@H](CCC(=O)O)NC(=O)C(C)(C)NC(=O)C(C)(C)NC(=O)[C@@H](NC(=O)[C@H](CCCCNC(C)=O)NC(=O)[C@H](C)NC(=O)[C@H](CCCNC(=N)N)NC(=O)[C@@H](NC(=O)[C@H](CCCCN)NC(=O)[C@H](CCC(=O)O)NC(=O)[C@H](CCCNC(=N)N)NC(=O)CNC(=O)[C@H](CCC(=O)O)NC(=O)[C@H](CC(C)C)NC(C)=O)C(C)C)[C@@H](C)CC)[C@@H](C)O)C(N)=O)C(=O)O)C(=O)O)C(=O)O)C(=O)O` [compound 180] (Ac-LEGREKVRAK(Ac)I[Aib][Aib]EGQSTWS[Aib]RKK(Ac)K([AEEA-AEEA-AEEA-AEEA-γGlu-γGlu-γGlu-γGlu-Stearoyl])-NH2) is 84%; for `CCCCCCCCCCCCCCCC(=O)N[C@@H](CCC(=O)N[C@@H](CCC(=O)N[C@@H](CCC(=O)NCCCC[C@H](NC(=O)CCOCCOCCOCCOCCOCCOCCOCCOCCNC(=O)[C@H](CCCCNC(C)=O)NC(=O)[C@H](CCCCN)NC(=O)[C@H](CCCNC(=N)N)NC(=O)C(C)(C)NC(=O)[C@H](CO)NC(=O)[C@H](Cc1c[nH]c2ccccc12)NC(=O)[C@@H](NC(=O)[C@H](CO)NC(=O)[C@H](CCCC)NC(=O)CNC(=O)[C@H](CCC(=O)O)NC(=O)C(C)(C)NC(=O)C(C)(C)NC(=O)[C@@H](NC(=O)[C@H](CCCCNC(C)=O)NC(=O)[C@H](C)NC(=O)[C@H](CCCNC(=N)N)NC(=O)[C@@H](NC(=O)[C@H](CCCCN)NC(=O)[C@H](CCC(=O)O)NC(=O)[C@H](CCCNC(=N)N)NC(=O)CNC(=O)[C@H](CCC(=O)O)NC(=O)[C@H](CC(C)C)NC(C)=O)C(C)C)[C@@H](C)CC)[C@@H](C)O)C(N)=O)C(=O)O)C(=O)O)C(=O)O` [compound 181] (Ac-LEGREKVRAK(Ac)I[Aib][Aib]EG[Nle]STWS[Aib]RKK(Ac)[PEG8]K([γGlu-γGlu-γGlu-Palmitoyl])-NH2) it is 79%. For `CCCCCCCCCCCCCCC(=O)N[C@@H](CCC(=O)N[C@@H](CCC(=O)N[C@@H](CCC(=O)N[C@@H](CCC(=O)NCCCC[C@H](NC(=O)COCCOCCNC(=O)COCCOCCNC(=O)COCCOCCNC(=O)COCCOCCNC(=O)[C@H](CCCCNC(C)=O)NC(=O)[C@H](C)NC(=O)[C@H](CCCNC(=N)N)NC(=O)[C@](C)(CCCCN)NC(=O)[C@H](CO)NC(=O)[C@H](Cc1ccccc1)NC(=O)[C@@H](NC(=O)[C@H](CO)NC(=O)[C@H](CCC(N)=O)NC(=O)CNC(=O)[C@H](CCC(=O)O)NC(=O)C(C)(C)NC(=O)C(C)(C)NC(=O)[C@@H](NC(=O)[C@H](CCCCNC(C)=O)NC(=O)[C@H](C)NC(=O)[C@H](CCCNC(=N)N)NC(=O)[C@@H](NC(=O)[C@H](CCCCN)NC(=O)[C@H](CCC(=O)O)NC(=O)[C@H](CCCNC(=N)N)NC(=O)CNC(=O)[C@H](CCC(=O)O)NC(=O)[C@H](CC(C)C)NC(C)=O)C(C)C)[C@@H](C)CC)[C@@H](C)O)C(N)=O)C(=O)O)C(=O)O)C(=O)O)C(=O)O` [compound 182] (Ac-LEGREKVRAK(Ac)I[Aib][Aib]EGQSTFS[αMeK]RAK(Ac)[AEEA][AEEA][AEEA][AEEA]K([γGlu-γGlu-γGlu-γGlu-Pentadecanoyl])-NH2), the EC50 amounted to 0.19 nM and the Emax amounted to 99%.
